Assay results reported in US9273095B2, “Antibiotic peptide and preparation method therefor and application therefor” (priority 2011, dated 2016).
Values after ≈ are worked out from the molar mass of the structure shown. Where two headings read alike, the source gives them in different places. Non-standard residues stand in square brackets, D forms with d. Residues, ends and D or L forms follow the SMILES beside them.

Key:
[1] = system: Acinetobacter calcoaceticus; experiment: microbe, parasite or virus in culture; assay type: cell-based; conditions: Acinetobacter calcoaceticus25001
Procedure, shortened: (§1)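 MICs determined by two-fold agar dilution in MH agar, drug final concentrations 0.03–128 μg/ml. Strains grown in nutrient broth and brain heart infusion, spotted at 10^4CFU/point with a multipoint inoculator, then incubated 18 hours at 35° C before reading.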

Enterobacter aerogenes = experiment: microbe, parasite or virus in culture; assay type: cell-based; conditions: Enterobacter aerogenes 45102
Procedure, shortened: as §1

Enterobacter cloacae = experiment: microbe, parasite or virus in culture; assay type: cell-based; conditions: Enterobacter cloacae 45301
Procedure, shortened: as §1

Escherichia coli = experiment: microbe, parasite or virus in culture; assay type: cell-based
Procedure, shortened: (§2)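 Two-fold agar dilution MIC in MH agar at final drug concentrations 0.03-128 μg/ml. Standard and clinical strains, including drug-resistant isolates, inoculated at 10^4 CFU/point by multipoint inoculator. Plates incubated 18 hours at 35° C before reading.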

Feilaoti citrobacter = experiment: microbe, parasite or virus in culture; assay type: cell-based; conditions: Feilaoti citrobacter 48001
Procedure, shortened: as §1

Proteus vulgaris = experiment: microbe, parasite or virus in culture; assay type: cell-based; conditions: Proteus vulgaris 56
Procedure, shortened: as §1

Pseudomonas aeruginosa = experiment: microbe, parasite or virus in culture; assay type: cell-based
Procedure, shortened: as §2

Salmonella typhimurium = experiment: microbe, parasite or virus in culture; assay type: cell-based; conditions: Salmonella typhimurium
Procedure, shortened: as §1

Serratia marcescens = experiment: microbe, parasite or virus in culture; assay type: cell-based; conditions: Serratia marcescens 41002
Procedure, shortened: as §1

Shigella flexneri = experiment: microbe, parasite or virus in culture; assay type: cell-based
Procedure, shortened: as §1

Shigella sonnei = experiment: microbe, parasite or virus in culture; assay type: cell-based; conditions: Shigella sonnei strains 51592
Procedure, shortened: as §1

Shigella = experiment: microbe, parasite or virus in culture; assay type: cell-based
Procedure, shortened: as §1

Staphylococcus aureus = experiment: microbe, parasite or virus in culture; assay type: cell-based
Procedure, shortened: as §2

[2] = system: Staphylococcus epidermidis; experiment: microbe, parasite or virus in culture; assay type: cell-based
Procedure, shortened: as §2

Typhoid bacillus H901 = experiment: microbe, parasite or virus in culture; assay type: cell-based
Procedure, shortened: as §1

klebsiella pneumoniae = experiment: microbe, parasite or virus in culture; assay type: cell-based
Procedure, shortened: as §2

Enterococcus faecalis = experiment: organism not typed; assay type: cell-based; conditions: read-out: MIC
Procedure: (§3) The experimental strains are 37 standard strains preserved in lab and clinical isolated bacteria, including drug-resistant bacteria and quality-control bacteria selecting Staphylococcus aureus ATCC29213, Enterococcus faecalis ATCC29212, Escherichia coli ATCC25922, Pseudomonas aeruginosa ATCC27853 and klebsiella pneumoniae ATCC700603.
(§4) (1) Sensitivity test is conducted with two-fold agar dilution method and Denlay multipoint inoculator. Test bacteria are cultured with nutrient broth and brain heart infusion.
(§5) (2) The drug is double diluted into different concentration with MH broth after dissolved and then placed in the plate respectively.
(§6) (4) After solidification of the culture medium in the plate, test bacteria (10^4CFU/point) are inoculated by multipoint inoculator and cultured for 18 hours at constant 35° C. Then observe the results.

Enterococcus faecium = experiment: microbe, parasite or virus in culture; assay type: cell-based
Procedure: as §3, §4, §5, §6

[3] = Circular dichroism (CD) spectroscopy, helical structure; assay type: physicochemical
Procedure: The mean residue molar ellipticities of peptides are determined by circular dichroism (CD) spectroscopy, using a Jasco J-720 spectropolarimeter (Jasco, Easton, Md.), at 25° C. under benign conditions (50 mM KH2PO4/K2HPO4/100 mM KCl, pH7), as well as in the presence of an α-helix inducing solvent, 2,2,2-trifluoroethanol (TFE) (50 mM KH2PO4/K2HPO4/100 mM KCL, pH 7 buffer/50% TFE). A 10-fold dilution of a 500 μM stock solution of the peptide is loaded into a 0.02 cm fused silica cell and its mean residue molar ellipticity scanned from 190 to 250 nm. The values of mean residue molar ellipticities of the peptide at a wavelength of 222 nm are used to estimate the relative amount of α-helicity of the peptides.
To determine the secondary structure of peptides in different environments, circular dichroism (CD) spectra of the peptide analogs are measured under physiologically related pH and ionic strength (100 mM KCl, 50 mM aq. PO4, pH 7 referred to as benign conditions) and also in 50% TFE to mimic the hydrophobic environment of the membrane. CD spectra of the peptide analogs are measured under benign conditions (100 mM KCl, 50 mM KH2PO4/K2HPO4, pH 7, referred to as KP buffer) and also in 50% trifluoroethanol (TFE) to mimic the hydrophobic environment of the membrane. […] However, in the presence of 50% TFE, all three L-peptides are fully folded α-helical structures with similar molar ellipticities and helicity.
FIG. 2 illustrates graphical results of Circular dichroism (CD) spectra of peptides at pH 7.4 and 25° C., in 50 mM aq. PO4 containing 100 mM KCl, wherein KP buffer (50 mM KH2PO4, K2HPO4, 100 mM KCl, pH 7.4) mimics hydrophilic environment and KP buffer-TFE (1:1 [vol/vol]) mimics hydrophobic environment of cell membrane. The figure above represents the CD spectra of peptides in benign buffer without TFE, whilst the figure below represents CD spectra obtained in the presence of 50% TFE.

[4] = Pseudomonas aeruginosa TCC27853
[5] = strain 17 (listed under Pseudomonas aeruginosa)
[6] = 08-49(MSSA) Meticillin susceptible staphylococcus aureus
[7] = 08-52(MRSA) Methicillin-resistant staphylococcus aureus
[8] = Staphylococcus aureus ATCC25923
[9] = Staphylococcus aureus ATCC29213
[10] = strain 15 (listed under Staphylococcus aureus)
[11] = 08-17 (MSSE) Meticillin susceptible staphylococcus epidermidis
[12] = 08-18 (MRSE) Methicillin-resistant staphylococcus epidermidis
[13] = (MRSE) Methicillin-resistant Staphylococcus epidermidis ATCC12228
[14] = 08-2 (ESBLs) (listed under klebsiella pneumoniae)
[15] = klebsiella pneumoniae ATCC700603
[16] = strain 7 (listed under klebsiella pneumoniae)
[17] = 06-71 (VRE) Vancomycin-resistant Enterococci
[18] = Enterococcus faecalis ATCC29212
[19] = HH22* (AMEs) Aminoglycoside-modifying enzyme
[20] = strain 06-7 (listed under Enterococcus faecalis)
[21] = 06-12 (VREF) Vancomycin-resistant enterococci

Row | Molecule | MIC [1] | MIC (Enterobacter aerogenes) | MIC (Enterobacter cloacae) | MIC (Escherichia coli; 272(TEM-88)) | MIC (Escherichia coli; 274 (TEM-15)) | MIC (Escherichia coli; 276 (TEM-52)) | MIC (Feilaoti citrobacter) | MIC (Proteus vulgaris) | MIC (Pseudomonas aeruginosa; [4]) | MIC (Pseudomonas aeruginosa; [5]) | MIC (Salmonella typhimurium) | MIC (Serratia marcescens) | MIC (Shigella flexneri) | MIC (Shigella sonnei) | MIC (Shigella) | MIC (Staphylococcus aureus; [6]) | MIC (Staphylococcus aureus; [7]) | MIC (Staphylococcus aureus; [8]) | MIC (Staphylococcus aureus; [9]) | MIC (Staphylococcus aureus; [10]) | other results
1 | CC[C@@H](C)[C@@H](NC(=O)[C@@H](CCCCN)NC(=O)[C@@H](CO)NC(=O)[C@@H](Cc1ccccc1)NC(=O)[C@@H](CC(C)C)NC(=O)[C@@H](CCCCN)NC(=O)[C@@H](CCC(=O)O)NC(=O)[C@@H](CC(C)C)NC(=O)[C@@H](CCCNC(=N)N)NC(=O)[C@@H](CCCCN)NC(=O)[C@@H](Cc1ccccc1)NC(C)=O)C(=O)N[C@H](Cc1c[nH]c2ccccc12)C(=O)N[C@H](CC(N)=O)C(=O)N[C@H](Cc1c[nH]c2ccccc12)C(=O)N[C@H](CCCCN)C(N)=O [PL-17] (Ac-[dF][dK][dR][dL][dE][dK][dL][dF][dS][dK][dI][dW][dN][dW][dK]-NH2) | 1.3 µM (≈ 2.68 µg/mL) | 1.3 µM (≈ 2.68 µg/mL) | 1.3 µM (≈ 2.68 µg/mL) | 0.3 µM (≈ 0.619 µg/mL) | 0.3 µM (≈ 0.619 µg/mL) | 0.7 µM (≈ 1.45 µg/mL) | 2.7 µM (≈ 5.57 µg/mL) | 5.3 µM (≈ 10.9 µg/mL) | 1.3 µM (≈ 2.68 µg/mL) | 2.7 µM (≈ 5.57 µg/mL) | 1.3 µM (≈ 2.68 µg/mL) | 1.3 µM (≈ 2.68 µg/mL) | 0.3 µM (≈ 0.619 µg/mL) | 0.3 µM (≈ 0.619 µg/mL) | 0.3 µM (≈ 0.619 µg/mL) | 0.7 µM (≈ 1.45 µg/mL) | 5.3 µM (≈ 10.9 µg/mL) | 0.3 µM (≈ 0.619 µg/mL) | 0.3 µM (≈ 0.619 µg/mL) | 0.3 µM (≈ 0.619 µg/mL) | MIC [2, 11]: 1.0 µM (≈ 2.06 µg/mL); MIC [2, 12]: 1.0 µM (≈ 2.06 µg/mL); MIC [2, 13]: 1.0 µM (≈ 2.06 µg/mL); MIC (Typhoid bacillus H901): 0.7 µM (≈ 1.45 µg/mL); MIC (klebsiella pneumoniae; [14]): 0.3 µM (≈ 0.619 µg/mL); MIC (klebsiella pneumoniae; [15]): 2.7 µM (≈ 5.57 µg/mL); MIC (klebsiella pneumoniae; [16]): 0.3 µM (≈ 0.619 µg/mL); MIC (Enterococcus faecalis; [17]): 1.7 µM (≈ 3.51 µg/mL); MIC (Enterococcus faecalis; [18]): 5.3 µM (≈ 10.9 µg/mL); MIC (Enterococcus faecalis; [19]): 10.7 µM (≈ 22.1 µg/mL); MIC (Enterococcus faecalis; [20]): 5.3 µM (≈ 10.9 µg/mL); MIC (Enterococcus faecium; [21]): 1.7 µM (≈ 3.51 µg/mL); MIC (Enterococcus faecium; Enterococcus faecium 06-1): 10.7 µM (≈ 22.1 µg/mL)
2 | Ac-FKRLEKLFSKIWNWK-NH2 [PL-12] | 0.03 µM | 0.03 µM | 0.3 µM | 0.7 µM | 1.3 µM | 1.3 µM | 5.3 µM | 0.3 µM | 5.3 µM | 2.7 µM | 5.3 µM | 0.03 µM | 2.7 µM | 2.7 µM | 1.7 µM | 0.7 µM | 1.3 µM | 1.3 µM | 1.3 µM | 1.3 µM | 50% TFE % helix ([3]; 50% TFE, relative to ellipticity (100%) of reference peptide in 50% TFE): 93.8%; secondary structure by CD (in words) ([3]; KP buffer (benign)): only partially helical; Benign buffer % helix ([3]; benign buffer, relative to ellipticity (100%) of reference peptide in 50% TFE): 11.9%; Benign buffer [θ]222 ([3]; mean residue molar ellipticity at 222 nm, 25° C., 100 mM KCl, 50 mM PO4, pH 7.0): −3350 deg · cm^2 · dmol^−1; 50% TFE [θ]222 ([3]; mean residue molar ellipticity at 222 nm, 25° C., buffer containing 50% TFE): −26450 deg · cm^2 · dmol^−1; MIC [2, 11]: 2.7 µM; MIC [2, 12]: 1.3 µM; MIC [2, 13]: 1.3 µM; MIC (Typhoid bacillus H901): 5.3 µM; MIC (klebsiella pneumoniae; [14]): 5.3 µM; MIC (klebsiella pneumoniae; [15]): 2.7 µM; MIC (klebsiella pneumoniae; [16]): 5.3 µM; MIC (Enterococcus faecalis; [17]): 0.3 µM; MIC (Enterococcus faecalis; [18]): 1.3 µM; MIC (Enterococcus faecalis; [19]): 0.3 µM; MIC (Enterococcus faecalis; [20]): 5.3 µM; MIC (Enterococcus faecium; [21]): 1.3 µM; MIC (Enterococcus faecium; Enterococcus faecium 06-1): 5.3 µM
